Source: patent US20070026398A1, “Protein tyrosine phosphatase-prl-1 a a marker and therapeutic target for pancreatic cancer” (priority 2003, published 2007)
pIC50: −log10 of the molar value. Values joined by “and” are separate entries in the source; they are usually repeats but may differ in a detail not shown here. Equal values may be shown once. Read-outs that look alike come from different tables or passages of the source.

How the values were obtained:
[1] = biological target: T1, PRL-1 (Homo sapiens, UniProt Q93096); test: in vitro PRL-1 phosphatase enzymatic assay (tyrosine phosphatase / DiFMUP assay); type: biochemical; set-up: INHIBITION % (PRL-1 inhibitory activity): concentration or dose not given beside the values; conditions: for INHIBITION % (PRL-1 inhibitory activity): UA Natural Products Library hits; for inhibitory activity against PRL-1: Promega tyrosine phosphatase assay system, TNT-expressed His-tagged PRL-1 (FIG. 7C)
T1 sequence (Q93096 1-173): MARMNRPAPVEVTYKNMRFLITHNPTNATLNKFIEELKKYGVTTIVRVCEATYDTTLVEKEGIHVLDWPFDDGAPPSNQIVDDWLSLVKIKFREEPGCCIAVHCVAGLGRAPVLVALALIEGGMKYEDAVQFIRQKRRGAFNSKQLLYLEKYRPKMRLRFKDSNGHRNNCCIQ
From the text: Assays that measure the removal of phosphates from proteins or peptides containing phosphotyrosine may also be employed in the present invention. One method of screening for drug targets would involve measuring inhibition of PRL-1-mediated tyrosine dephosphorylation. This assay detects the amount of free […] generated in a reaction by measuring the absorbance of a molybdate:malachite green:phosphate complex. This assay detects the activity of protein tyrosine phosphatases. Such assays or systems are commercially available from suppliers such as Promega (Madison, Wis.) or Applied Biosystems (Foster City, Calif.).
Another assay employed in the present invention is an improved method for measuring protein phosphatases for high-throughput screening involving 6,8-difluoro-4-methylumbelliferyl phosphate (DiFMUP). DiFMUP can assay both acid and alkaline phosphatase activity. […] The lower pka of its hydrolysis product makes DiFMUP a sensitive substrate for acid phosphatases, which is not possible with MUP because its fluorescence must be measured at alkaline pH. Furthermore, with its high quantum yield, DiFMUP increases the sensitivity of both acid and alkaline phosphatase measurements. […] DiFMUP enables the quantitation of as little as 1.0 pg/ml alkaline phosphatase.
For example, in the present invention, a bacterial expression system may be employed (i.e., pProEx vector) from which recombinant His-tagged PRl-1 protein may be obtained and purified using a column (i.e., a nickel column). The PRl-1 enzymatic activity in the presence of a drug compound of interest and in combination with DiFMUP substrate may be incubated (about 1 h) and the dephosphorylated substrate detected.
To produce PRL-1 protein for in vitro phosphatase assays, the PRL-1 gene was cloned into an expression vector with a His tag (pcDNA™ 3.1 from Invitrogen) and the protein expressed in vitro using the TNT coupled transcription and translation kit (Promega). […] The molecular weight of this PRL-1 protein (22KDa) is exactly the same as reported in the literature. An in vitro phosphatase assay was conducted using a tyrosine phosphatase assay system (Promega) to confirm the dephosphorylation activity of the recombinant PRL-1 protein.
This assay was optimized and used to screen various compound libraries for PRL-1 inhibitors. […] Compounds identified using the DiFMUP in vitro assay to screen compounds from the Nanosyn Combichem library and the NCI database include NS19999, NS45609, NS45336, and NCI668394 respectively.
The inventors first cloned the full length open reading frame of PRL-1 to the bacteria expression vector pProEx-HTa (Invitrogen) under the control of an IPTG inducible promoter. A six-histidine tag was added to the C-terminus of PRL-1 for quick purification of PRL-1 using the Ni-NTA system. The expression vector was transformed to bacteria strain BL21 and checked for PRL-1 expression using Western blot. For large scale expression, bacteria were grown in 500 ml LB media to logarithm phase (OD600 between 0.5 to 0.9) and induced to express PRL-1 by adding IPTG to final concentration of 1 mM and incubating for 4 hours. Bacteria were harvested by centrifugation at 5,000 rpm for 5 min and resuspended in the Native Binding Buffer (50 mM NaPO4, 0.5M NaCl, pH8.0, and 10 mM imidazole) at 16 ml/100 ml culture. The bacteria cells were then lysated by adding lmg/ml lysozyme and sonication. The cell lysate was centrifuged at 3,000 g for 15 min and the supernatant were then transferred to a 10-ml column pre-packed with 1.5 ml of Ni-NTA resin (Invitrogen). The column was gently agitated for 60 min to allow the binding of the His-tagged PRL-1 to the resin. After the binding reaction, the column was washed with the Native Wash Buffer (50 mM NaPO4, 0.5M NaCl, pH 8.0, and 20 mM imidazole) for 4 times. Finally, the PRL-1 protein was eluted off the column with 10 ml of Native Elution Buffer (50 mM NaPO4, 0.5 M NaCl, pH 8.0, and 250 mM imidazole). […]

[2] = system: Mia PaCa-2 cells; test: cell proliferation assay in Mia PaCa-2 pancreatic cancer cells; type: cell-based; conditions: Homo sapiens
Description: FIGS. 13A-13C. Inhibition of cell proliferation by PRL-1 inhibitors using a SRB staining assay. FIG.13A—Inhibition of MiaPaCa-2 cell growth by UA668394. Cells were exposed to different doses of UA668394 (0.2 μM to 200 μM) for four days by SRB (Sulforhodamine B) staining. […] FIG. 13B—Inhibition of cell proliferation in pancreatic cancer cells Panc-1 and Mia PaCa-2 by the compound UA66839-1 analog. FIG. 13C—Inhibition of cell proliferation in pancreatic cancer cells Panc-l and Mia PaCa-2 by the compound UA668394-2 analog.
Cell Proliferation Assays. Cell proliferation assays with these cell lines are performed to determine the effect of target inhibition on cell growth. Cells are seeded at 2.0-5.0×10^5 cells in 100-mm culture dishes and allow to attach overnight at 37° C. Adherent cells are washed and incubated with serum-free RPMI 1640 or RPMI containing 10% FBS for 48 h, after which they are trypsinized and counted using a hemocytometer. In addition, parallel experiments are perform and instead of cell counts, the proliferative status of the cell lines is determined using flow cytometric analysis of DNA content. For flow analysis, cells are stained with propidium iodide using a modified Krishan technique (Krishan, 1975). All samples are analyze with an FACSCAN flow cytometer (Becton Dickinson) using a 15 mWatt argon ion laser operated at 6 mWatts of power at 488 nm. Photomultiplier tube voltage is adjusted for each control sample to position the G0/G1 to channel 240 on a 1024 channel presentation. Histograms are analyze for cell cycle compartments using CELLQUEST (Becton Dickinson) analysis software. Histograms having 50K events are collected to maximize the statistical validity of the compartmental analysis. The results of this flow analysis allow the examination of the cell cycle distribution of the pancreatic cancer cell lines.
UA668394 was previously identified as a PRL-1 phosphatase inhibitor (IC50=7 μM) using high throughout library screening.
Compounds identified as being positive for anti-PRL-1 activity were tested for their ability to inhibit cell proliferation in human pancreatic cancer cells. The inhibitory activity of UA668394, UA19999 and UA45336 (Table 5) were examined. Cell proliferation assays were conducted using the pancreatic cancer cell line Mia PaCa-2, as described in Example 1. Briefly, 2.0-5.0×10^5 cells were seeded in 100-mm culture dishes and allowed to attach overnight at 37° C. Adherent cells were washed and incubated with serum-free RPMI 1640 or RPMI containing 10% FBS for 48 h, and treated with the compound of interest to determine its effect on the inhibition of cell growth. For example, cells were treated with of the UA668394, UA19999 and UA45336 compounds and analyzed for inhibition of cell proliferative using a MTS assay.

[3] = PRL-1 inhibitors identified by library screening, read-out: IC50
[4] = MIA PaCa-2, MTS cell proliferation assay, read-out: IC50, inhibition of cell proliferation in Mia PaCa-2 cells

With `C=CCn1c(SCC(=O)O)nnc1-c1ccc([N+](=O)[O-])cc1` [UA58428] the “INHIBITION % (PRL-1 inhibitory activity)” value [1] was 42%.

Molecule `CN1C(=O)C(=O)c2cc([N+](=O)[O-])ccc21` [UA19999] has a pIC50 [1, 3] of 4.48 and a pIC50 [2, 4] of 3.92.

`Brc1cccc(C2=NC(c3ccccc3)=C3C=CC=CN3C2)c1` [UA21497] was tested, and the pIC50 [1, 3] was 7.00.

Molecule `COc1cc(NCCC(C)=O)c2ncccc2c1` [UA292O9] has a pIC50 [1, 3] of 4.39.

For `N#CC1=C(N)NC(=S)C(C(N)=O)C1c1ccccc1F` (centres unmarked) [UA64859], the “INHIBITION % (PRL-1 inhibitory activity)” value [1] was 76%.

In the case of `O=C(O)CN(CCN(CC(=O)O)CC(=O)O)CC(=O)O` [EDTA, reference compound], the “inhibitory activity against PRL-1” value [1] was “some inhibitory activity”.

With `Nc1cc(S(=O)(=O)C(F)(F)F)ccc1C(=O)O` [UA12882, 2-Amino-4-trifluoromethanesulfonyl-benzoic acid] the pIC50 [1, 3] was 4.60.

For `C=[N+](OC)c1nn(CC(=O)Nc2sc(C)c(C)c2C(N)=O)c(C)c1Br` [UA47548], the “INHIBITION % (PRL-1 inhibitory activity)” value [1] was 70%.

In the case of `O=C1C(O)=C([N+](=O)[O-])C(=O)c2ccccc21` [UA45609], the pIC50 [1, 3] was 4.77.

In the case of `COc1ccccc1C=C1C(=O)NC(=O)NC1=O` [UA12499], the pIC50 ([1]; IC50, PRL-1 inhibitors identified by library screening) was 4.44.

`CCC1=NN(c2ccccc2)C(=O)C(CC(=O)Nc2ccccc2)c2cc(OC)c(OC)cc21` (centres unmarked) [UA12812] was tested, and the pIC50 [1, 3] was 4.18.

`C=Cc1ccc2c3c(ccc(C=O)c13)C(Cl)=CC2=O` [UA61880] was tested, and the “INHIBITION % (PRL-1 inhibitory activity)” value [1] was 50%.

For `O=C(O)c1ccc2c(c1)C(=O)N(c1cccc3ccccc13)C2=O` [UA13464], the pIC50 [1, 3] was 4.14.

In the case of `[Na+].[Na+].[Na+].[O]=[V]([O-])([O-])[O-]` [sodium orthovanadate, reference compound], the “inhibitory activity against PRL-1” value [1] was “some inhibitory activity”.

With `O=C1C=Cc2cc(Br)ccc2C1=O` [UA13082] the pIC50 [1, 3] was 5.06.

For `NC(=O)c1cc2ccc(O)cc2oc1=O` [UA63415], the “INHIBITION % (PRL-1 inhibitory activity)” value [1] was 62%.

For `CC(=O)Oc1cc(OC(C)=O)c2c(c1)OC(=O)C(Cl)C2C` (centres unmarked) [UA14798], the pIC50 [1, 3] was 4.19.

With `COC(=O)c1nc(O)c2ccccc2c1O` [UA45336] the pIC50 [1, 3] was 4.90 and the pIC50 [2, 4] was 4.02.

`O=C1C=C(NCCc2cc(Br)c(O)c(Br)c2)C(=O)c2ncccc21` [UA668394] was tested, and the pIC50 [1, 3] was 5.15 and 5.14, the pIC50 ([2]; MIA PaCa-2, 96 h, SRB staining, four days exposure, 0.2 μM to 200 μM (FIG. 13A legend), read-out: estimated IC50, inhibition of MiaPaCa-2 cell growth) was 5.92 and the pIC50 [2, 4] was 5.92.
